In brackets after ≈: the same amount, converted by molar mass. Several values for one entry are separate records, joined by “and”; a condition that tells them apart may be missing. Identical values can stand only once. Like-named read-outs stand apart in the source and are kept apart here.
Tests used:
Format in all cases: cell-based
[1] = tested on: Methicillin-susceptible Staphylococcus aureus (MSSA); assay: MIC by agar dilution, MSSA clinical isolates; settings: for MIC: MSSA, data from 8 isolates
Description: (§1) A panel of multiple resistance Gram-positive and Gram-negative pathogens listed in Tables 1 and 2 was used to evaluate the antimicrobial activity of marinopyrrole derivatives (Chart 1) with vancomycin as a positive control. Except for those marked with WHO, all pathogens were isolated between 2008 and 2010 in hospitals located in Beijing; Guangzhou; Sichuan, Shandong and Jiangsu Province. Determination of the minimum inhibitory concentration (MIC) was done by the guidelines of the Clinical and Laboratory Standards Institute (Clinical and Laboratory Standards Institute, Performance standards for antimicrobial susceptibility testing, seventeenth informational supplement. 2007, 27, M100-S17). The susceptibility tests of a bacterial strain to a marinopyrrole derivative were performed by an agar dilution method. Briefly, each sterile petri dish contained a final volume of 15 mL comprising 1 mL of a marinopyrrole derivative and 14 mL of Mueller-Hinton broth. The concentrations of a marinopyrrole derivative are 128, 64, 32, 16, 8, 4, 2, 1, 0.5, 0.25, 0.125, 0.06, 0.03, 0.015 and 0.008 μg/mL. The petri dish containing the broth with different concentration of antibiotics was first inoculated with 10^5 CFU/mL (Denley A400, United Kingdom) and the culture was then incubated with shaking at 35-37° C. for 18-20 h. The potency of the compound was determined and expressed as minimum inhibitory concentration (MIC) in μg/mL. The MIC was determined as the lowest concentration of antibiotic that inhibited visible bacterial growth.

[2] = tested on: Methicillin-resistant Staphylococcus aureus (MRSA); assay: MIC by agar dilution, MRSA clinical isolates; settings: for MIC: MRSA, data from 8 isolates
Description: as §1

[3] = tested on: Methicillin-resistant Staphylococcus epidermidis (MRSE); assay: MIC by agar dilution, MRSE clinical isolates; settings: for MIC: MRSE
Description: as §1

[4] = tested on: Moderately vancomycin-resistant Enterococci faecium with the VanA gene (WHO-3); assay: MIC by agar dilution, VRE (WHO-3); settings: WHO-3
Description: as §1

[5] = tested on: Oxacillin-resistant Staphylococcus aureus (WHO-25); assay: MIC by agar dilution, ORSA (WHO-25); settings: WHO-25
Description: as §1

[6] = tested on: Methicillin-resistant Staphylococcus aureus with the mec A gene and PBP2a (WHO-31); assay: MIC by agar dilution, MRSA (WHO-31); settings: WHO-31
Description: as §1

[7] = Staphylococcus aureus, Table 3, read-out: MIC
[8] = Staphylococcus epidermidis, Table 3, data from 4 isolates, read-out: MIC
[9] = Staphylococcus aureus, Table 2, read-out: MIC
[10] = Staphylococcus epidermidis, Table 2, data from 4 isolates, read-out: MIC
[11] = Enterococcus, Table 2, read-out: MIC

Structure (SMILES) | MIC ([1]; Table 2) [µg/mL] | MIC ([2]; Table 2) [µg/mL] | MIC ([3]; Table 2, data from 4 isolates) [µg/mL] | MIC ([4]; Table 2) [µg/mL] | MIC ([5]; Table 2) [µg/mL] | MIC ([6]; Table 2) [µg/mL] | MIC [1, 9] [µg/mL] | MIC [2, 9] [µg/mL] | MIC [3, 10] [µg/mL] | MIC [4, 11] [µg/mL] | MIC [5, 9] [µg/mL] | MIC [6, 9] [µg/mL] | other results
Cc1cc(O)c(C(=O)c2[nH]c(Cl)c(Cl)c2-n2c(C(=O)c3cc(Cl)c(C)cc3O)cc(Cl)c2Cl)cc1Cl [CCW14] | – | – | – | – | – | – | – | – | – | – | – | – | MIC [1, 7]: 1 µg/mL (≈ 1.65 µM); MIC [2, 7]: 1 µg/mL (≈ 1.65 µM); MIC [3, 8]: 1 µg/mL (≈ 1.65 µM); MIC ([4]; Enterococcus, Table 3, read-out: MIC): 4 µg/mL (≈ 6.59 µM); MIC [5, 7]: 4 µg/mL (≈ 6.59 µM); MIC [6, 7]: 1 µg/mL (≈ 1.65 µM)
COc1ccc(CSc2ccc(C(=O)c3[nH]c(Cl)c(Cl)c3-n3c(C(=O)c4ccc(SCc5ccc(OC)cc5)cc4O)cc(Cl)c3Cl)c(O)c2)cc1 [Compound 27] | >64 | >64 | 8 to 64 | 16 (≈ 19.6 µM) | >64 | >64 | – | – | – | – | – | – | –
O=C(c1ccc(C(F)(F)F)cc1O)c1[nH]c(Cl)c(Cl)c1-n1c(C(=O)c2ccc(C(F)(F)F)cc2O)cc(Cl)c1Cl [Compound 41, (4,4′,5,5′-tetrachloro-1′H-1,3′-bipyrrole-2,2′-diyl)bis((2-hydroxy-4-(trifluoromethyl)phenyl)methanone)] | – | – | – | – | – | – | 0.125 (≈ 0.193 µM) | 0.125 to 0.25 (≈ 0.193 to 0.387 µM) | < 0.008 | 0.5 (≈ 0.774 µM) | 1 (≈ 1.55 µM) | 1 (≈ 1.55 µM) | MIC ([1]; Table 3): 0.125 µg/mL (≈ 0.193 µM); fold more potent than marinopyrrole A ([1]; against MSSA): 4 fold; fold more potent than vancomycin ([1]; against MSSA): 8 fold; MIC ([2]; Table 3): 0.125 to 0.25 µg/mL; fold more potent than marinopyrrole A ([2]; against MRSA): 2-4 fold and 4 fold; fold more potent than vancomycin ([2]; against MRSA): 2-4 fold and 4-8 fold; MIC [3, 8]: < 0.008 µg/mL; MIC ([3]; Staphylococcus epidermidis, against MRSE, read-out: MIC): 0.008 µg/mL (≈ 0.0124 µM); fold more potent than marinopyrrole A ([3]; against MRSE): > 31 fold and 31 fold; fold more potent than vancomycin ([3]; against MRSE): > 62 fold and 63-125 fold; MIC ([4]; Table 3): 0.5 µg/mL (≈ 0.774 µM); MIC ([5]; Table 3): 1 µg/mL (≈ 1.55 µM); MIC ([6]; Table 3): 1 µg/mL (≈ 1.55 µM)
COc1ccc(CS(=O)(=O)c2ccc(C(=O)c3[nH]c(Cl)c(Cl)c3-n3c(C(=O)c4ccc(S(=O)(=O)Cc5ccc(OC)cc5)cc4O)cc(Cl)c3Cl)c(O)c2)cc1 [Compound 30] | >64 | >64 | 2 to 16 | >64 | >64 | >64 | – | – | – | – | – | – | –
O=C(c1ccc(O)cc1O)c1[nH]c(Cl)c(Cl)c1-n1c(C(=O)c2ccc(O)cc2O)cc(Cl)c1Cl [Compound 24, (4,4′,5,5′-Tetrachloro-1′H-1,3′-bipyrrole-2,2′-diyl)bis((2,4-dihydroxyphenyl)methanone)] | – | – | – | – | – | – | 2 (≈ 3.69 µM) | 2 (≈ 3.69 µM) | 2 to 8 (≈ 3.69 to 14.8 µM) | 4 (≈ 7.38 µM) | 4 (≈ 7.38 µM) | 2 (≈ 3.69 µM) | –
CCOC(=O)CSc1ccc(C(=O)c2[nH]c(Cl)c(Cl)c2-n2c(C(=O)c3ccc(SCC(=O)OCC)cc3O)cc(Cl)c2Cl)c(O)c1 [Compound 25] | 64 (≈ 85.7 µM) | 32 to 64 | 8 (≈ 10.7 µM) | 2 (≈ 2.68 µM) | 64 (≈ 85.7 µM) | 16 (≈ 21.4 µM) | – | – | – | – | – | – | –
O=C(c1ccc(S(=O)(=O)Cc2ccccc2)cc1O)c1[nH]c(Cl)c(Cl)c1-n1c(C(=O)c2ccc(S(=O)(=O)Cc3ccccc3)cc2O)cc(Cl)c1Cl [Compound 29, (4,4′,5,5′-Tetrachloro-1′H-1,3′-bipyrrole-2,2′-diyl)bis(((2-hydroxy-4-benzylsulfonyl)phenyl)methanone)] | >64 | >64 | 32 (≈ 39.1 µM) | 8 (≈ 9.77 µM) | 32 (≈ 39.1 µM) | 64 (≈ 78.2 µM) | – | – | – | – | – | – | –
O=C(c1cc(Cl)c(O)cc1O)c1[nH]c(Cl)c(Cl)c1-n1c(C(=O)c2cc(Cl)c(O)cc2O)cc(Cl)c1Cl [Compound 19, (4,4′,5,5′-Tetrachloro-1′H-1,3′-bipyrrole-2,2′-diyl)bis((5-chloro-2,4-dihydroxyphenyl)methanone)] | – | – | – | – | – | – | 32 (≈ 52.4 µM) | 32 (≈ 52.4 µM) | 4 to 8 (≈ 6.55 to 13.1 µM) | 4 (≈ 6.55 µM) | 8 (≈ 13.1 µM) | 8 (≈ 13.1 µM) | fold decreased potency compared with compound 1m ([2]; against MRSA): 4-16 fold; fold decreased potency compared with compound 1m ([3]; against MRSE): 2-16 fold
